The values that follow come from EP1757607A1, “N5-substituted benzo¬2,3|azepino¬4,5-b|indol-6-ones for treating tropical diseases” (Molisa GmbH, priority 2005, dated 2007).

Assay [1] has as its target T1, Trypanothione Synthetase TS (Crithidia fasciculata, UniProt O60993).
T1 sequence (O60993 1-652): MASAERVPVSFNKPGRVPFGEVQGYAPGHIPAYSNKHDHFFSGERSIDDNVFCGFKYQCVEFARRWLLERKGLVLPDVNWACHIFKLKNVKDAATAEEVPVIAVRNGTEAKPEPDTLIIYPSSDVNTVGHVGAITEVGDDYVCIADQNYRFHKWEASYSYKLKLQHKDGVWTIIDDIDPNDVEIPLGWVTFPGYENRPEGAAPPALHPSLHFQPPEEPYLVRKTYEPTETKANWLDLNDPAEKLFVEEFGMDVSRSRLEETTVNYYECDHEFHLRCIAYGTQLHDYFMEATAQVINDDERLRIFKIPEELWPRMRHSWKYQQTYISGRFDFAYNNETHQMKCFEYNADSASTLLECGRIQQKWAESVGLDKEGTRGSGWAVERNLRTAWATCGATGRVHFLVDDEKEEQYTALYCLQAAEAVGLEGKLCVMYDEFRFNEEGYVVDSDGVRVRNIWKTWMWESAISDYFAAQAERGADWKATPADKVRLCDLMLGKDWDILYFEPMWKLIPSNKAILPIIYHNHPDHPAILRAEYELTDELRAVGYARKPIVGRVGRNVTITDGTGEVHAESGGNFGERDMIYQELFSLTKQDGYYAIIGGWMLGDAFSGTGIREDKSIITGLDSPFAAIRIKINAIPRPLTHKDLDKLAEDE
The assay is described as follows: Inhibition of Trypanothione Synthetase (Table 1). The conditions noted are these: compound concentration not stated for Table 1. It counts as biochemical.

The target of a further assay is T2, TryS (Crithidia fasciculata, UniProt O60993).
T2 sequence (O60993 1-652): T1 sequence (O60993 1-652)
In words: Screening of potential inhibitors against TryS (malachite green, A650). The format is biochemical. The settings on record: 10 µM compound; 90.75 nM TryS, 0.675 mM GSH, 6.75 mM spermidine, 45 µM ATP, room temperature, 60 min; triplicates; read-out: inhibitory effect (%). As for the experimental part:
The compounds were screened against TryS at 10 µM compound concentration. The inhibitory effect of each compound on TryS was measured in triplicates. Obvious outliers from the triplicates were removed. If the standard deviation of the two remaining inhibition values exceeded 25 % the measurement was repeated.
The screen was performed under the following conditions: 90.75 nM TryS was incubated with 0.675 mM GSH, 6.75 mM spermidine, 45 µM ATP, and 10 µM compound in a total volume of 80 µl 100 mM HEPES pH 7.5, 10 mM MgSO4, 0.1 mM EDTA, 5 mM DTT at room temperature for 60 min. Reaction was stopped by addition of 10 µl malachitgreen reagent. A650 was measured after 20 min. No compound was present in the positive controls (C+). Neither GSH nor spermidine was present in the negative controls (C-).

For “2-(9-Bromo-6-oxo-6,7-dihydro-5H-benzo[2,3]azepino[4,5-b]indol-5-yl)-acetic acid hydrazide [Compound 26]”, the “Inhibition of TS %” value in assay [1] was determined as 0%.

In the case of `CNCCNC(=O)CN1C(=O)Cc2c([nH]c3ccc(Br)cc23)-c2ccccc21` [Compound 13, 2-(9-Bromo-6-oxo-6,7-dihydro-5H-benzo[2,3]azepino[4,5-b]indol-5-yl)-N-(2-methylamino-1-yl-ethyl)-acetamide], the “Inhibition of TS %” value in assay [1] is on record as 92.4%.

As for `NCCNC(=O)CN1C(=O)Cc2c([nH]c3ccc(Br)cc23)-c2ccccc21` [Compound 17, N-(2-Amino-1-yl-ethyl)-2-(9-bromo-6-oxo-6,7-dihydro-5H-benzo[2,3]azepino[4,5-b]indol-5-yl)-acetamide], the inhibition at 10 µM at TryS stood at 96.8%. Further, the “Inhibition of TS %” value in assay [1] was found to be 78.6%.

Turning to `NCCCNC(=O)CN1C(=O)Cc2c([nH]c3ccc(Br)cc23)-c2ccccc21` [Compound 18, N-(3-Amino-1-yl-propyl)-2-(9-bromo-6-oxo-6,7-dihydro-5H-benzo[2,3]azepino[4,5-b]indol-5-yl)-acetamide], the inhibition at 10 µM at TryS worked out at 85.1%. Moreover, the “Inhibition of TS %” value in assay [1] is 37.8%.

Turning to `NCCCCNC(=O)CN1C(=O)Cc2c([nH]c3ccc(Br)cc23)-c2ccccc21` [Compound 19, N-(4-Amino-1-yl-butyl)-2-(9-bromo-6-oxo-6,7-dihydro-5H-benzo[2,3]azepino[4,5-b]indol-5-yl)-acetamide], at TryS, the inhibition at 10 µM is 54.3%. For the same compound, the “Inhibition of TS %” value in assay [1] turned out to be 16.2%.

Consider `NCCCNCCCCNC(=O)CN1C(=O)Cc2c([nH]c3ccc(Br)cc23)-c2ccccc21` [Compound 20, N-(4-(3-Amino-1-yl-propylamino)-1-yl-butyl)-2-(9-bromo-6-oxo-6,7-dihydro-5H-benzo[2,3]azepino[4,5-b]indol-5-yl)-acetamide], for which the inhibition at 10 µM at TryS came to 47.6%. For the same compound, the “Inhibition of TS %” value in assay [1] turned out to be 24.6%.

Take `NCCCCNCCCNC(=O)CN1C(=O)Cc2c([nH]c3ccc(Br)cc23)-c2ccccc21` [Compound 21, N-(3-(4-Amino-1-yl-butylamino)-1-yl-propyl)-2-(9-bromo-6-oxo-6,7-dihydro-5H-benzo[2,3]azepino[4,5-b]indol-5-yl)-acetamide]: the inhibition at 10 µM at TryS stood at 47.6%. Besides, in assay [1], the “Inhibition of TS %” value is 22.5%.

Consider `CNCCNC(=O)CN1C(=O)Cc2c([nH]c3ccc(C#N)cc23)-c2ccccc21` [Compound 22, 2-(9-Cyano-6-oxo-6,7-dihydro-5H-benzo[2,3]azepino[4,5-b]indol-5-yl)-N-(2-methylamino-1-yl-ethyl)-acetamide], for which the “Inhibition of TS %” value in assay [1] came to 51.7%.

As for `CNCCNC(=O)CN1C(=O)Cc2c([nH]c3ccccc23)-c2ccccc21` [Compound 23, N-(2-Methylamino-1-yl-ethyl)-2-(6-oxo-6,7-dihydro-5H-benzo[2,3]azepino[4,5-b]indol-5-yl)-acetamide], the “Inhibition of TS %” value in assay [1] turned out to be 0%.

For `CNCCNC(=O)CN1C(=O)Cc2c([nH]c3ccc(C)cc23)-c2ccccc21` [Compound 24, 2-(9-Methyl-6-oxo-6,7-dihydro-5H-benzo[2,3]azepino[4,5-b]indol-5-yl)-N-(2-methylamino-1-yl-ethyl)-acetamide], the “Inhibition of TS %” value in assay [1] is 20.5%.

As for `O=C(CN1C(=O)Cc2c([nH]c3ccc(Br)cc23)-c2ccccc21)N1CCNCC1` [Compound 25, N-[2-(9-Bromo-6-oxo-6,7-dihydro-5H-benzo[2,3]azepino[4,5-b]indol-5-yl)-acetyl]-piperazine], the “Inhibition of TS %” value in assay [1] is listed as 76.5%.
